Measurements as given in patent US20030032774A1, “Novel opioid peptides for the treatment of pain” (priority 1994, published 2003).
Where two headings read alike, the source gives them in different places. Square brackets hold non-standard residues; d marks the D form. Peptide text beside a SMILES is read from it. Phe(4-F) = N[C@@H](Cc1ccc(F)cc1)C(=O)O; dNva = CCC[C@@H](N)C(=O)O

Assays:
[1] = system: PBQ induced writhing in mice; experiment: PBQ (phenylquinone)-induced writhing assay; format: in vivo, mouse; conditions: for Writhing ED50: Table 2, mouse; for ED50(PBQ): mouse s.c., 20 min post administration
Experimental: The test was performed on CD #1 male mice weighing between 18 and 22 g. Mice were weighed, marked and then injected, by the intraperitoneal route, with 0.3 ml/20 g by weight of a solution of phenylquinone at 0.02%. The contortions which appeared during a 15 minute time period following the injection were counted. The phenylquinone was injected at time intervals of 5, 20 or 60 minutes after administration of the compound (or medium, or standard) by subcutaneous route. It was injected at time intervals of 60 minutes after the administration of the compound (or medium, or standard) by oral route;
The 0.02% phenylquinone solution was prepared as follows: 20 mg of phenylquinone was dissolved in 5 ml ethanol 90% (Sigma). The dissolved phenylquinone was slowly added to 95 ml of distilled water continuously shaken and preheated (not boiled). The phenylquinone solution was, at all times protected from light and a new solution was prepared every day for the test. Each group usually contained 10 mice. If an antagonist, such as naloxone, was used, it was administered 20 minutes before the compound (or the medium, or the standard) by the intraperitoneal route.
Writhing assays were performed on CD#1 male mice weighing between […]. Assays were carried out as described in Example 3 and results are summarized below in Table 2.

μ receptor = molecular target: T1, μ receptor (Rattus norvegicus, UniProt P33535); experiment: Radioligand binding assay, μ opioid receptor ((3H)-DAMGO, brain membranes); conditions: for Binding Assay Kiδ Kiμ: selectivity ratio
T1 construct: the brains (minus the cerebellum) were removed, placed in ice-cold saline solution, and then homogenized; from tissue; host or cells: rat brain (minus cerebellum) membranes
T1 sequence (P33535 whole entry): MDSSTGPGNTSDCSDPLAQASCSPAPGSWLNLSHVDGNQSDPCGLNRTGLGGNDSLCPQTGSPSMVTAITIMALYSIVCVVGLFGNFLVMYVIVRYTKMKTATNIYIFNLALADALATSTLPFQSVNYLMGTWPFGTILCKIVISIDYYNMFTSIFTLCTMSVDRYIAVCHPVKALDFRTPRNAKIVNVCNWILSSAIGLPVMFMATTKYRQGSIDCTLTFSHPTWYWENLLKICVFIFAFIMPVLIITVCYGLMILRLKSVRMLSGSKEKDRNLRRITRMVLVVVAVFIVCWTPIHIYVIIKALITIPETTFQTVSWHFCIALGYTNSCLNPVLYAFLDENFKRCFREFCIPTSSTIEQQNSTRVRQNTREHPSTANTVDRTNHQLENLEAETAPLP
Experimental: (§1) PBQ (phenyl-ρ-benzoquinone) induced writhing in mice is an assessment of both central and peripheral analgesia (see Sigmund, et al., Proc. Soc. Exp. Biol. Med. 95:729 (1957)). Central analgesia is determined by the inhibition of a hot-plate response in mice (see, Wolfe, et al., J. Pharmacol. Exp. Ther. 80:300 (1944)). Assays measuring opioid receptor binding affinities for μ and δ receptors as well as the GPI assay were determined through experimental protocol set out in Schiller et al. (Biophys. Res. Commun. 85:1322 (1975)). The references by Sigmund, et al., Wolfe, et al., and Schiller, et al. are each hereby incorporated by reference.
(§2) Male Sprague-Dawley rats weighing between 350-450 g were sacrificed by inhalation of CO2. The rats were decapitated and the brains (minus the cerebellum) were removed, placed in ice-cold saline solution, and then homogenized in ice-cold 50 mM Tris buffer pH 7.4 (10 ml/brain). Membranes were centrifuged at 14000 rpm for 30 min. at 4° C. The pellets were re-suspended in approximately 6 ml/brain of ice-cold Tris buffer 50 mM pH 7.4 and stored at −78° C. until ready for use. Protein quantification of the brain homogenate was conducted according to protein assay kit purchased (Bio-Rad).
(§3) (^3H)-DAMGO and (^3H)-DAGLE were used as radioligands for the μ and δ receptors, respectively. Radioligand 50 μl, membranes 100 μl, and serially diluted test compound were incubated for 1 hr at 22° C. Nonspecific binding was determined using a 500 fold excess of unlabeled ligand in the presence of tracer and membranes. Free ligand was separated from bound by filtration through Whatman GF/B paper (presoaked in polyethylenimine 1% aqueous solution) and rinsing with ice-cold 50 mM Tris pH 7.4 using a Brandel cell harvester. The filters were dried and radioactivity was counted in a 24 well microplate in the presence of 500 μl scintillant per well. Radioactivity was measured using a Wallace 1450 Microbeta counter. Ki's for the various compounds were determined from the IC50 according to the Cheng and Prusoff equation.

μ receptors = μ receptors (Cavia porcellus, UniProt P97266); experiment: Guinea Pig Ileum (GPI) assay, longitudinal muscle preparation
Sequence of μ receptors (P97266 whole entry, looked up): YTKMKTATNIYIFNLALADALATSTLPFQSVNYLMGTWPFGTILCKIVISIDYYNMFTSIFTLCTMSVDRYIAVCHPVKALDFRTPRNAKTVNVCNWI
Experimental: The activity of the peptide compounds on μ receptors was determined using the Guinea Pig Ileum (GPI) assay (longitudinal muscle preparation) according to the procedures described in Schiller et al., Biophys. Res. Commun. 85:1322 (1975).

δ receptor = δ receptor (Rattus norvegicus, UniProt P33533); experiment: biochemical
Sequence of δ receptor (P33533 whole entry): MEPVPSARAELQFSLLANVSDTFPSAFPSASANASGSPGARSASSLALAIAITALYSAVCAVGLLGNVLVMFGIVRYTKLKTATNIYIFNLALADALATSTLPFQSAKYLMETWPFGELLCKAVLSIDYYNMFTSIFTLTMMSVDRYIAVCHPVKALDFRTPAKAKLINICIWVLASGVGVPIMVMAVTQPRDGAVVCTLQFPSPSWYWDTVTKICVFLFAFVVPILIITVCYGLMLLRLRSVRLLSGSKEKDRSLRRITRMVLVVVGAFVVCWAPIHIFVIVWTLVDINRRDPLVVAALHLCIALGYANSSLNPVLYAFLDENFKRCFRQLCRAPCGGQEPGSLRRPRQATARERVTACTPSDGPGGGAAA
Experimental: as §1, §2, §3

mice = experiment: Lethal effects / safety in mice; conditions: 1-5 mg kg−1 i.v. bolus dose
[2] = system: hot-plate response in mice; conditions: in vivo; for Hot Plate: sc

C[C@@H](NC(=O)[C@@H](N)Cc1ccc(O)cc1)C(=O)N[C@@H](Cc1ccc(F)cc1)C(=O)N[C@@H](Cc1ccc(F)cc1)C(N)=O [Compound #1B, H-Tyr-D-Ala-Phe(pF)-Phe(pF)-NH2] (H-Y[dA][Phe(4-F)][Phe(4-F)]-NH2)
Writhing ED50 [1]: 0.2 mg/kg | Ki (μ receptor; Binding Assay Kiμ, Table 2): 0.2 nM | Binding Assay Kiδ Kiμ (μ receptor; Table 2): 998 | IC50 (μ receptors; CPI IC50, Table 2): 0.12 nM | Ki (δ receptor): 200 nM

C[C@@H](NC(=O)[C@@H](N)Cc1ccc(O)cc1)C(=O)N[C@@H](Cc1ccccc1)C(=O)N[C@@H](Cc1ccccc1)C(N)=O [BCH1774, H-Tyr-D-Ala-Phe-Phe-NH2] (H-Y[dA]FF-NH2)
duration of analgesic effect in writhing assay ([1]; 20 mg/kg s.c. BCH1774 vs 30 mg/kg s.c. BCH2463, FIG. 3): lasted longer than for BCH2463 | Writhing ED50 [1]: 1.4 mg/kg | ED50(PBQ) [1]: 1.4 mg/kg | lethal effects upon mice (mice): exhibited lethal effects | Ki (μ receptor; Table 1, read-out: Ki^μ): 1.53 nM | Ki (μ receptor; Table 2, read-out: Binding Assay Kiμ): 1.53 nM | Binding Assay Kiδ Kiμ (μ receptor; Table 2): 409 | Hot Plate ([2]; mouse): >100 mg/kg | IC50 (μ receptors): 3 nM | Ki (δ receptor; read-out: Binding Assay Kiδ, Table 2): 626 nM

N=C(N)NCCC[C@@H](NC(=O)[C@@H](N)Cc1ccc(O)cc1)C(=O)N[C@@H](Cc1ccc(F)cc1)C(=O)N[C@@H](Cc1ccc(F)cc1)C(N)=O [Compound #2B, H-Tyr-D-Arg-Phe(pF)-Phe(pF)-NH2] (H-Y[dR][Phe(4-F)][Phe(4-F)]-NH2)
Writhing ED50 [1]: 0.3 mg/kg | Ki (μ receptor; Binding Assay Kiμ, Table 2): 0.22 nM | Ki (δ receptor): > 1000 nM

CCC[C@@H](NC(=O)[C@@H](N)Cc1ccc(O)cc1)C(=O)N[C@@H](Cc1ccccc1)C(=O)N[C@@H](Cc1ccccc1)C(N)=O [BCH2462, H-Tyr-D-Nva-Phe-Phe-NH2] (H-Y[dNva]FF-NH2)
ED50(PBQ) [1]: 2.7 mg/kg | lethal effects upon mice (mice): exhibited lethal effects | central analgesic effect in the mouse hot plate test ([2]; 100 mg/kg): No central analgesic effect was observed | reaction time in the hot plate test ([2]; mouse): approximately 8 seconds | Hot Plate ([2]; mouse): >100 mg/kg

N=C(N)NCCC[C@@H](NC(=O)[C@@H](N)Cc1ccc(O)cc1)C(=O)N[C@@H](Cc1ccc(F)cc1)C(=O)N[C@@H](Cc1ccccc1)C(N)=O [Compound #2C, H-Tyr-D-Arg-Phe(pF)-Phe-NH2] (H-Y[dR][Phe(4-F)]F-NH2)
Writhing ED50 [1]: 0.3 mg/kg | Ki (μ receptor; Binding Assay Kiμ, Table 2): 0.57 nM | Binding Assay Kiδ Kiμ (μ receptor; Table 2): 1671 | IC50 (μ receptors; CPI IC50, Table 2): 1.52 nM | Ki (δ receptor): 952 nM
